Consider 30 molecules from US20250340510A1, “Substituted Phenylbenzenesulfonamide Derivatives and Uses Thereof” (Nine Square Therapeutics Corporation, priority 2022, published 2025).

This test deals with TRPML1 (Homo sapiens, UniProt Q9GZU1). Briefly: Calcium flux in HEK293 overexpressing TRPML1 plasma membrane variant (FLIPR, Calcium 6 dye). Type of test: cell-based. The note with it: HEK293/TRPML1-PM clone A5 cells; 4-parameter logistic fit; read-out: TRPML1 calcium flux (FLIPR) dose response: EC50. The source says:
Example B1. Calcium Flux in HEK293 Overexpressing TRPML1 Plasma Membrane Variant—Calcium 6 Dye
Cells: HEK293/TRPML1-PM clone A5, clonal cell line containing mutant TRPML1 (both N- and C-terminal dileucine targeting motifs deleted) that localizes to the plasma membrane
Plates: Perkin Elmer Viewplate cat. #6007460, black optically clear, tissue culture treated 384-well plate
Calcium dye: Molecular Devices FLIPR Calcium 6 Assay Kit, cat. #R8190 or Fluo-4 Direct from Thermo Fisher, cat. #F10471
Tips: Molecular Devices 384-well FLIPR Tetra black tips, cat. #9000-0764 Example B1.2 Method
HEK293/TRPML1-PM clone A5 cells were trypsinized from flasks, counted, then diluted in media to 15,000 cells per 25 μL, and seeded into a black, 384-well viewplate, and cultured overnight.
One vial of calcium 6 dye was diluted with 10 mL of assay buffer (HBSS+20 mM HEPES pH 7.4) and 25 μL of the dilution was added per well to the cells.
After incubating for 2 hours at 37° C., the plate was moved to the FLIPR in the read position.
The compounds were diluted in EMEM with 0.125% FBS to 5× concentration and loaded in a 384-well plate according to the desired plate map for the assay, including DMSO alone and carbachol controls, then the plate was moved to the FLIPR in the source 2 position.
A box of tips was placed in the source 1 position within the FLIPR to complete the assay set up.
Once the run was started, an initial baseline fluorescent measurement was performed for 10 seconds (470-495 nm excitation and 515-575 nm emission) prior to adding the compounds.
12.5 μL of 5× test compound, DMSO alone, or carbachol were added via the FLIPR and real-time fluorescence measurements were performed for an additional 170 seconds with 1 read per second.
The data was normalized to baseline by calculating maximum fluorescence minus minimum fluorescence and plotted as response (fold) over the baseline versus log ([…] concentration). The EC50 was determined using a 4-parameter logistic curve fit in Graphpad Prism 9.
In general terms: Calcium assays in cells follow changes in intracellular calcium, usually with a dye or a luminescent sensor.

Chain of TRPML1 (Q9GZU1 17-572 limits assumed): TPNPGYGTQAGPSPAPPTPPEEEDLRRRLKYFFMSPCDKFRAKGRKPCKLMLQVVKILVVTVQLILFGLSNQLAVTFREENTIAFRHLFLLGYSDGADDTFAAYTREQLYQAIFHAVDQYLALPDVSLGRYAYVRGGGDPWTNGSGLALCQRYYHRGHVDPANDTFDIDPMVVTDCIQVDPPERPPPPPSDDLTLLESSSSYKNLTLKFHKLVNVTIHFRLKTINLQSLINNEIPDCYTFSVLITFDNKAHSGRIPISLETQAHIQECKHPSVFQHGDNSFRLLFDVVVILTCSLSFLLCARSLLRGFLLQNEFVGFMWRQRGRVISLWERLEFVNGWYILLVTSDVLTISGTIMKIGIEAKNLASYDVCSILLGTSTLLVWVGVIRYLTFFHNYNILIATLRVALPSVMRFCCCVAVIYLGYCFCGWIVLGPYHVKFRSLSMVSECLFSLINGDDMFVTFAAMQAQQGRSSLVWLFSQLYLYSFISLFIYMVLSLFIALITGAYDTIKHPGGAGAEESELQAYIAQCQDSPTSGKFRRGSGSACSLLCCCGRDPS

On to `CN(CC1COC1)c1ccccc1NS(=O)(=O)c1ccc(S(=O)(=O)N(C)C)cc1` [Compound 47, N1,N1-dimethyl-N4-(2-(methyl(oxetan-3-ylmethyl)amino)phenyl)benzene-1,4-disulfonamide], for which the EC50 (commonly the midpoint of the concentration-response curve) was > 10 µM. With `Cc1cc(CN(C)c2ccccc2NS(=O)(=O)c2ccc(S(=O)(=O)N(C)C)cc2)cc(C)n1` [Compound 48, N1-(2-(((2,6-dimethylpyridin-4-yl)methyl)(methyl)amino)phenyl)-N4,N4-dimethylbenzene-1,4-disulfonamide], the concentration giving a half-maximal response (EC50) is 7.45 µM.

Regarding `Cc1nn(C)cc1CN(C)c1ccccc1NS(=O)(=O)c1ccc(S(=O)(=O)N(C)C)cc1` [Compound 50, N1-(2-(((1,3-dimethyl-1H-pyrazol-4-yl)methyl)(methyl)amino)phenyl)-N4,N4-dimethylbenzene-1,4-disulfonamide], the 50% effective concentration (EC50) was 6.55 µM. Consider `Cc1ncsc1CN(C)c1ccccc1NS(=O)(=O)c1ccc(S(=O)(=O)N(C)C)cc1` [Compound 51, N1,N1-dimethyl-N4-(2-(methyl((4-methylthiazol-5-yl)methyl)amino)phenyl)benzene-1,4-disulfonamide], for which the EC50 came to 3.05 µM.

For `CN(c1cccc(Cl)c1NS(=O)(=O)c1ccc(S(=O)(=O)N(C)C)cc1)C1CCCCC1` [Compound 52, N1-(2-chloro-6-(cyclohexyl(methyl)amino)phenyl)-N4,N4-dimethylbenzene-1,4-disulfonamide], the EC50 was found to be 5.78 µM.

`CN(c1ccc(F)cc1NS(=O)(=O)c1ccc(S(=O)(=O)N(C)C)cc1)C1CCCCC1` [Compound 53, N1-(2-(cyclohexyl(methyl)amino)-5-fluorophenyl)-N4,N4-dimethylbenzene-1,4-disulfonamide]: the concentration for a half-maximal effect (EC50) worked out at 1.06 µM. The figure for `CN(C)CCN(C)c1ccccc1NS(=O)(=O)c1ccc(S(=O)(=O)N(C)C)cc1` [Compound 54, N1-(2-((2-(dimethylamino)ethyl)(methyl)amino)phenyl)-N4,N4-dimethylbenzene-1,4-disulfonamide] is > 10 µM; for `CN(Cc1cncn1C)c1ccccc1NS(=O)(=O)c1ccc(S(=O)(=O)N(C)C)cc1` [Compound 56, N1,N1-dimethyl-N4-(2-(methyl((1-methyl-1H-imidazol-5-yl)methyl)amino)phenyl)benzene-1,4-disulfonamide] it is > 10 µM; for `CN(Cc1cccnc1)c1ccccc1NS(=O)(=O)c1ccc(S(=O)(=O)N(C)C)cc1` [Compound 57, N1,N1-dimethyl-N4-(2-(methyl(pyridin-3-ylmethyl)amino)phenyl)benzene-1,4-disulfonamide] it is 4.61 µM. Take `Cc1cnccc1CN(C)c1ccccc1NS(=O)(=O)c1ccc(S(=O)(=O)N(C)C)cc1` [Compound 58, N1,N1-dimethyl-N4-(2-(methyl((3-methylpyridin-4-yl)methyl)amino)phenyl)benzene-1,4-disulfonamide]: the EC50 came to 6.88 µM. For `CN(Cc1cn(C)cn1)c1ccccc1NS(=O)(=O)c1ccc(S(=O)(=O)N(C)C)cc1` [Compound 59, N1,N1-dimethyl-N4-(2-(methyl((1-methyl-1H-imidazol-4-yl)methyl)amino)phenyl)benzene-1,4-disulfonamide], the EC50 came to 2.24 µM.

In the case of `CCN(c1ccccc1NS(=O)(=O)c1ccc(S(=O)(=O)N(C)C)cc1)C1CCCCC1` [Compound 60, N1-(2-(cyclohexyl(ethyl)amino)phenyl)-N4,N4-dimethylbenzene-1,4-disulfonamide], the EC50 was 0.0867 µM. The figure for `CN(C)S(=O)(=O)c1ccc(S(=O)(=O)Nc2ccccc2N(C=O)Cc2cncs2)cc1` [Compound 61, N-(2-((4-(N,N-dimethylsulfamoyl)phenyl)sulfonamido)phenyl)-N-(thiazol-5-ylmethyl)formamide] is > 30 µM; for `CN(CCC1COC1)c1ccccc1NS(=O)(=O)c1ccc(S(=O)(=O)N(C)C)cc1` [Compound 62, N1,N1-dimethyl-N4-(2-(methyl(2-(oxetan-3-yl)ethyl)amino)phenyl)benzene-1,4-disulfonamide] it is > 30 µM. On to `CN(C)S(=O)(=O)c1ccc(S(=O)(=O)Nc2ccccc2N(C(=O)C(F)(F)F)C2CCCCC2)cc1` [Compound 63, N-cyclohexyl-N-(2-((4-(N,N-dimethylsulfamoyl)phenyl)sulfonamido)phenyl)-2,2,2-trifluoroacetadmie], for which the EC50 was found to be 11 µM.

For the molecule `Cc1ncc(F)cc1CN(C)c1ccccc1NS(=O)(=O)c1ccc(S(=O)(=O)N(C)C)cc1` [Compound 75, N1-(2-(((5-fluoro-2-methylpyridin-3-yl)methyl)(methyl)amino)phenyl)-N4,N4-dimethylbenzene-1,4-disulfonamide], the EC50 was 2.14 µM. With `CN(Cc1cnc2n1CCC2)c1ccccc1NS(=O)(=O)c1ccc(S(=O)(=O)N(C)C)cc1` [Compound 79, N1-(2-(((6,7-dihydro-5H-pyrrolo[1,2-a]imidazol-3-yl)methyl)(methyl)amino)phenyl)-N4,N4-dimethylbenzene-1,4-disulfonamide], the EC50 is 28.5 µM.

`Cc1cnn(C)c1CN(C)c1ccccc1NS(=O)(=O)c1ccc(S(=O)(=O)N(C)C)cc1` [Compound 80, N1-(2-(((1,4-dimethyl-1H-pyrazol-5-yl)methyl)(methyl)amino)phenyl)-N4,N4-dimethylbenzene-1,4-disulfonamide]: the EC50 turned out to be 5.94 µM. For `CCN(CC)c1ccccc1NS(=O)(=O)c1ccc(S(=O)(=O)N(C)C)cc1` [Compound 82, N1-(2-(diethylamino)phenyl)-N4,N4-dimethylbenzene-1,4-disulfonamide], the EC50 worked out at 3.76 µM.

In the case of `CN(Cc1cn2c(n1)CCC2)c1ccccc1NS(=O)(=O)c1ccc(S(=O)(=O)N(C)C)cc1` [Compound 83, N1-(2-(((6,7-dihydro-5H-pyrrolo[1,2-a]imidazol-2-yl)methyl)(methyl)amino)phenyl)-N4,N4-dimethylbenzene-1,4-disulfonamide], the EC50 is > 30 µM.

In the case of `CN(c1cccc(C#N)c1NS(=O)(=O)c1ccc(S(=O)(=O)N(C)C)cc1)C1CCCCC1` [Compound 86, N1-(2-cyano-6-(cyclohexyl(methyl)amino)phenyl)-N4,N4-dimethylbenzene-1,4-disulfonamide], the EC50 is > 30 µM. For the molecule `CN(c1cc(C#N)ccc1NS(=O)(=O)c1ccc(S(=O)(=O)N(C)C)cc1)C1CCCCC1` [Compound 88, N1-(4-cyano-2-(cyclohexyl(methyl)amino)phenyl)-N4,N4-dimethylbenzene-1,4-disulfonamide], the EC50 worked out at 2.14 µM. With `CN(CCc1nccs1)c1ccccc1NS(=O)(=O)c1ccc(S(=O)(=O)N(C)C)cc1` [Compound 90, N1,N1-dimethyl-N4-(2-(methyl(2-(thiazol-2-yl)ethyl)amino)phenyl)benzene-1,4-disulfonamide], the concentration for a half-maximal effect (EC50) was found to be 1.4 µM.

Regarding `CN(c1cccc(C(F)(F)F)c1NS(=O)(=O)c1ccc(S(=O)(=O)N(C)C)cc1)C1CCCCC1` [Compound 92, N1-(2-(cyclohexyl(methyl)amino)-6-(trifluoromethyl)phenyl)-N4,N4-dimethylbenzene-1,4-disulfonamide], the EC50 was 7.44 µM. `CN(Cc1ccn(C2CC2)n1)c1ccccc1NS(=O)(=O)c1ccc(S(=O)(=O)N(C)C)cc1` [Compound 94, N1-(2-(((1-cyclopropyl-1H-pyrazol-3-yl)methyl)(methyl)amino)phenyl)-N4,N4-dimethylbenzene-1,4-disulfonamide]: the EC50 was determined as 2.53 µM. As for `CN(CC1CCOC(C)(C)C1)c1ccccc1NS(=O)(=O)c1ccc(S(=O)(=O)N(C)C)cc1` (stereo not drawn) [Compound 100, N1-(2-(((2,2-dimethyltetrahydro-2H-pyran-4-yl)methyl)(methyl)amino)phenyl)-N4,N4-dimethylbenzene-1,4-disulfonamide], the EC50 worked out at 1.16 µM. With `CN(Cc1cnsc1)c1ccccc1NS(=O)(=O)c1ccc(S(=O)(=O)N(C)C)cc1` [Compound 101, N1-(2-((isothiazol-4-ylmethyl)(methyl)amino)phenyl)-N4,N4-dimethylbenzene-1,4-disulfonamide], the EC50 was determined as 3.02 µM.

With `CN(c1ccccc1NS(=O)(=O)c1ccc(S(=O)(=O)N(C)C)cc1)C1CCCCC1(F)F` (stereo not drawn) [Compound 103, N1-(2-((2,2-difluorocyclohexyl) (methyl)amino)phenyl)-N4,N4-dimethylbenzene-1,4-disulfonamide], the concentration for a half-maximal effect (EC50) was determined as 1.97 µM. For `CN(CCCn1cccn1)c1ccccc1NS(=O)(=O)c1ccc(S(=O)(=O)N(C)C)cc1` [Compound 105, N1-(2-((3-(1H-pyrazol-1-yl)propyl)(methyl)amino)phenyl)-N4,N4-dimethylbenzene-1,4-disulfonamide], the EC50 was 4.36 µM.

With `CN(CC1CCCO1)c1ccccc1NS(=O)(=O)c1ccc(S(=O)(=O)N(C)C)cc1` (stereo not drawn) [Compound 107, N1,N1-dimethyl-N4-(2-(methyl((tetrahydrofuran-2-yl)methyl)amino)phenyl)benzene-1,4-disulfonamide], the EC50 is 1.39 µM.
